Experimental findings from patent publication US20030087906A1, “NITROGEN SUBSTITUTED BIARYL PURINE DERIVATIVES AS POTENT ANTIPROLIFERATIVE AGENTS” (priority 2001, published 2003) are described below.

Data set [1] relates to HeLa S-3 cells. Kind of data set: Inhibition of cell growth of HeLa cells (SRB). Format: cell-based, human. The note with it: 2 days of treatment, replicate experiments. As to the method: Growth inhibition (GI50) values were measured with HeLa S-3 cells selected for growth on plastic. […] One day later, a control plate was fixed by addition of TCA to 5%. After five rinses with tap water the plate was air dried and stored at 4° C. Test compounds were added to the remaining plates at 10-fold dilutions between 0.01 and 100 μM. Two days later all plates were fixed as described above. Cells were then stained by the addition of 100 μl per well of 0.4% sulforhodamine B (SRB) in 1% acetic acid for 30 min at 4° C. Wells were then quickly rinsed 5×with acetic acid (1%) and allowed to air dry. The SRB was then solubilized by the addition of 100 μl per well of unbuffered 10 mM Tris base. Dye was quantified by measuring absorbance at 490 nm on a Molecular Devices kinetic microplate reader. Growth at each inhibitor concentration relative to the untreated control was calculated according to the following equation: percent growth=100×(T−To)/(C−To), where T was the average optical density (OD) of the test wells after 2 days of treatment, To was the average OD of the wells in the control plate on day 0 and C was the average OD of untreated wells. Plots of percent growth versus inhibitor concentration were used to determine the GI50.

The target in data set [2] is CyclinE/cdk2 (Homo sapiens, UniProt P24941). Kind of data set: CyclinE/cdk2 protein kinase assay (histone H1 phosphorylation). The note with it: IC50 CyclinE/cdk2, complex immunopurified from HeLa cells; 15 μM ATP; replicate experiments.
Data set [3] concerns the target CyclinA/cdk2 (Homo sapiens, UniProt P24941). Kind of data set: CyclinA/cdk2 protein kinase assay (histone H1 phosphorylation). The note with it: IC50 CyclinA/cdk2, complex immunopurified from HeLa cells; 15 μM ATP; replicate experiments.

pIC50: −log10 of the molar value. Values joined by “and” are separate entries in the source; they are usually repeats but may differ in a detail not shown here. Equal values may be shown once.

The term GI50 denotes the concentration giving 50% growth inhibition. The low end stands for greater sensitivity of the cells, the high end for lower sensitivity of the cells. As a reminder, the melting point is the temperature of the solid-liquid transition. In general, pIC50 refers to the negative decadic logarithm of the IC50, by convention in mol/L. High values mean a low IC50, low ones a high IC50.

Regarding `CC(=O)NCCCNc1nc(NCc2ccc(-c3ccccc3)cc2)c2ncn(C(C)C)c2n1` [Compound 212], the melting point lay in the range of 106 to 107 °C. The compound further showed a GI50 in data set [1] (Homo sapiens, HeLa S3, 48 h) of 5 µM.

For `CC(C)n1cnc2c(NCc3ccc(-c4cccc(C(=O)O)c4)cc3)nc(N[C@H]3CC[C@H](N)CC3)nc21` [Compound 118], the melting point was in the range of 205 to 208 °C. Further, the pIC50 in data set [2] was 6.00. In addition, the pIC50 in data set [3] is 5.22.

Compound `COC(=O)c1ccc(-c2ccc(CNc3nc(N[C@H]4CC[C@H](NC(C)=O)CC4)nc4c3ncn4C(C)C)cc2)cc1` [Compound 117] gave a melting point of 247 to 250 °C. This compound gave a pIC50 in data set [2] of 5.52. Moreover, the pIC50 in data set [3] was less than 5.00.

`CC(=O)N[C@H]1CC[C@H](Nc2nc(NCc3ccc(-c4ccc(C(=O)O)cc4)cc3)c3ncn(C(C)C)c3n2)CC1` [Compound 116]: the melting point lay in the range of 344 to 347 °C. The same compound displayed a GI50 in data set [1] (Homo sapiens, HeLa S3, 48 h) greater than 10 µM. This compound also showed a pIC50 in data set [2] of less than 5.00. Besides, in data set [3], the pIC50 is less than 5.00.

`CC(=O)N[C@H]1CC[C@H](Nc2nc(NCc3ccc(-c4cc(C)cc(C)c4)cc3)c3ncn(C(C)C)c3n2)CC1` [Compound 150] registered a melting point of 207 to 210 °C. The compound also yielded a GI50 in data set [1] (Homo sapiens, HeLa S3, 48 h) of 0.3 µM.

As to `CCn1cnc2c(NCc3ccc(-c4ccccc4)cc3)nc(N[C@H]3CC[C@H](N)CC3)nc21` [Compound 137], the melting point was in the range of 175 to 182 °C.

As to `COc1ccc(OC)c(-c2ccc(CNc3nc(N[C@H]4CC[C@H](NC(C)=O)CC4)nc4c3ncn4C(C)C)cc2)c1` [Compound 154], the melting point was 185 to 192 °C. Besides, in data set [1], it took 0.9 µM to inhibit growth by half (GI50). Moreover, in data set [1] (Homo sapiens, HeLa S3, 48 h), the GI50 worked out at 0.6 µM.

The compound `COc1cccc(-c2ccc(CNc3nc(N[C@H]4CC[C@H](NC(C)=O)CC4)nc4c3ncn4C(C)C)cn2)c1` [Compound 194] registered a melting point of 161 to 163 °C. This compound gave a GI50 in data set [1] of 0.04 µM. Moreover, growth in data set [1] (Homo sapiens, HeLa S3, 48 h) was halved (GI50) at 0.06 µM.

`CCCN[C@H]1CC[C@H](Nc2nc(NCc3ccc(-c4ccc(C)s4)cc3)c3ncn(C(C)C)c3n2)CC1` [Compound 159] gave a melting point of 150 to 155 °C.

Compound `CC(=O)N[C@H]1CC[C@H](Nc2nc(NCc3ccc(-c4cccs4)nc3)c3ncn(C(C)C)c3n2)CC1` [Compound 200] displayed a melting point of 206 to 208 °C. For the same compound, in data set [1], the GI50 worked out at 0.2 µM. The compound further had a GI50 in data set [1] (Homo sapiens, HeLa S3, 48 h) of 0.3 µM.

As for `CC(C)n1cnc2c(NCc3ccc(-c4ccc(C(=O)O)cc4)cc3)nc(N[C@H]3CC[C@H](N)CC3)nc21` [Compound 114], the melting point was 246 to 249 °C (dec.). The compound also had a GI50 in data set [1] (Homo sapiens, HeLa S3, 48 h) greater than 10 µM. This compound gave a pIC50 in data set [2] of 6.15. Further, the pIC50 in data set [3] was 5.52.

Compound `CCCn1cnc2c(NCc3ccc(-c4ccccc4)cc3)nc(N[C@H]3CC[C@H](N)CC3)nc21` [Compound 142] returned a melting point of 133 to 138 °C.

The compound `CC(C)n1cnc2c(NCc3ccc(-c4ccsc4)nc3)nc(N[C@H]3CC[C@H](N)CC3)nc21` [Compound 123] returned a melting point of 78 to 81 °C. Further, the GI50 in data set [1] is < 0.001 µM and 0.0001 µM. In data set [2], this compound had a pIC50 of 7.40. Moreover, in data set [3], the pIC50 is 6.70.

`COC(=O)c1ccc(-c2ccc(CNc3nc(N[C@H]4CC[C@H](N)CC4)nc4c3ncn4C(C)C)cc2)cc1` [Compound 115] had a melting point of 194 to 197 °C. Further, the GI50 in data set [1] (Homo sapiens, HeLa S3, 48 h) was found to be 3 µM. The compound also gave a pIC50 in data set [2] of 6.40. The compound also had a pIC50 in data set [3] of 5.52.
